Several values for one entry are separate records, joined by “and”; a condition that tells them apart may be missing. Equal values may be shown once.
What was measured:
[1] = target: T1, 5-HT2A receptor (5-HT2AR) (Mus musculus, UniProt P35363); test: Drug-induced Head Twitch Response (HTR); assay type: in vivo; conditions: 1 mg/kg i.p., 15-to-30-minute window post-drug, relative to vehicle
T1 construct: host or cells: C57BL/6 mice, in vivo (neuronal receptor)

[2] = Mouse pharmacokinetic (PK) study, parent compound and psilocin metabolite in plasma; assay type: in vivo; conditions: for Plasma concentration of C(XX): LLOQ 0.25 ng/mL; for Plasma concentration: parent C(XX), BLQ = below 0.25 ng/mL; for AUC0-tlast/Dose of C(XX) / Cmax/Dose of C(XX) / AUC0-inf/Dose of C(XX): plasma
Text: Briefly, the procedure was as follows. […] 19, 2022.

[3] = target: T2, 5-HT1A receptor (Homo sapiens, UniProt P08908); test: cAMP-Glo assay of 5-HT1A receptor modulation, CHO-K1/5-HT1A/Ga15 (+5-HT1A) vs CHO-K1/Ga15 (−5-HT1A) cells; assay type: cell-based; conditions: +5-HT1A vs −5-HT1A CHO-K1 cells; 4 μM forskolin; increasing ligand concentration
T2 construct: host or cells: CHO-K1 (co-expressing Ga15)
T2 sequence (P08908 1-422): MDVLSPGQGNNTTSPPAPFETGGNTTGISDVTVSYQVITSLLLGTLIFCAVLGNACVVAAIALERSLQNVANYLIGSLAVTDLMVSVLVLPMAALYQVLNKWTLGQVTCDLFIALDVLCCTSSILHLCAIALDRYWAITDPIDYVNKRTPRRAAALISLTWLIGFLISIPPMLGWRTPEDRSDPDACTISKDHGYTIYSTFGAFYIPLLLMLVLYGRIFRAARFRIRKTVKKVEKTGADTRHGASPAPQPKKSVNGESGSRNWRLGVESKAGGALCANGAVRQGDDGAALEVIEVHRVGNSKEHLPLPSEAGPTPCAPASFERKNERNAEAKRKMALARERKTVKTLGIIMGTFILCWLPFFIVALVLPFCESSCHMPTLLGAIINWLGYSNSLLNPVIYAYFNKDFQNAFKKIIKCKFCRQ

[4] = mouse, prodrug 1 mg/kg i.v., 8 h, individual animals, BLQ = below 0.2 ng/mL
[5] = mouse, prodrug 1 mg/kg p.o. (psilocybin: 1.56 mg/kg), 8 h, individual animals, BLQ = below 0.2 ng/mL
[6] = mouse, prodrug 1 mg/kg p.o. (psilocybin: 1.56 mg/kg), 24 h, individual animals, BLQ = below 0.2 ng/mL
[7] = mouse, prodrug 3 mg/kg p.o., 24 h, individual animals, BLQ = below 0.2 ng/mL
[8] = mouse, prodrug 10 mg/kg p.o., 24 h, individual animals, BLQ = below 0.2 ng/mL
[9] = 3 mg/kg oral C(XX), individual mice, 3 mg/kg
[10] = 10 mg/kg oral C(XX), individual mice, 10 mg/kg

T1 sequence (P35363 whole entry): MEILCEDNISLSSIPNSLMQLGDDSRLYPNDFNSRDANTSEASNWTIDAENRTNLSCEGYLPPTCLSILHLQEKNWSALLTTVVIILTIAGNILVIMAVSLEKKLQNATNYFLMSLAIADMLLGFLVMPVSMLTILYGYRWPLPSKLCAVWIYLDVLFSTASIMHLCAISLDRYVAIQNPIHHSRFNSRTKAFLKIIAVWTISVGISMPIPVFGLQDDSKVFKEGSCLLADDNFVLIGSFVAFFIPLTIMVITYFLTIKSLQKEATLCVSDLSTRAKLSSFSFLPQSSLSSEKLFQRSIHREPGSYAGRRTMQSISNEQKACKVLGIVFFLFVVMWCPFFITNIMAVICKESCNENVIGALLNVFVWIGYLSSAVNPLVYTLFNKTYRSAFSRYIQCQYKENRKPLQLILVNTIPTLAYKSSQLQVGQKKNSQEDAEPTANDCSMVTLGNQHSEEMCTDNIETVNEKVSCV

What does the source list for COc1ccc(C(=O)Oc2cccc3[nH]cc(CCN(C)C)c23)cc1 [C(V)]?
Head Twitch Response (HTR) incidence [1]: Elevated incidences of HTR; Detection of parent compound in plasma after i.v. administration ([2]; mouse, 1 mg/kg i.v.): only detectable in i.v. administered animals; Plasma concentration of parent compound ([2]; mouse, 1 mg/kg i.v., 0.25 h, individual animals, BLQ = below 0.5 ng/mL (C(V)), 1 mg/kg): BLQ; Plasma concentration of parent compound ([2]; mouse, 1 mg/kg i.v., 0.5 h, individual animals, BLQ = below 0.5 ng/mL (C(V)), 1 mg/kg): BLQ and No Peak (2×); Plasma concentration of parent compound ([2]; mouse, 1 mg/kg i.v., 1 h, individual animals): No Peak; Plasma concentration of parent compound ([2]; mouse, 1 mg/kg i.v., 2 h, individual animals): No Peak; Plasma concentration of parent compound ([2]; mouse, 1 mg/kg i.v., 4 h, individual animals): No Peak; Plasma concentration of parent compound ([2]; mouse, 1 mg/kg i.v., 6 h, individual animals): No Peak; Plasma concentration of parent compound ([2]; mouse, 1 mg/kg i.v., 8 h, individual animals): No Peak; Detection of parent compound in plasma after oral administration ([2]; mouse, orally administered, any dose (1, 3, 10 mg/kg)): not detectable; Plasma concentration of psilocin [2, 4]: BLQ; Plasma concentration of psilocin [2, 5]: BLQ; Plasma concentration of psilocin [2, 6]: No Peak and BLQ (2×); Plasma concentration of psilocin [2, 7]: No Peak and BLQ (2×); Plasma concentration of psilocin [2, 8]: BLQ (2×) and No Peak; 5-HT1A receptor modulation (reduction of forskolin-induced cAMP) [3]: mild receptor modulation at higher ligand concentrations

Which “5-HT1A receptor modulation (reduction of forskolin-induced cAMP)” value [3] does the source give for NCCc1c[nH]c2ccc(O)cc12 [serotonin, reference compound] here?
Its value is “reduction in cAMP levels”.

What does the source list for COCCOCCOCC(=O)Oc1cccc2[nH]cc(CCN(C)C)c12 [C(III)]?
Head Twitch Response (HTR) incidence [1]: Elevated incidences of HTR; 5-HT1A receptor modulation (reduction of forskolin-induced cAMP) [3]: significant receptor modulation

For CN(C)CCc1c[nH]c2cccc(OC(=O)c3cccc(C(=O)Oc4cccc5[nH]cc(CCN(C)C)c45)c3)c12 [C(VII)], which “Head Twitch Response (HTR) incidence” value [1] is on record?
Its value is “Elevated incidences of HTR”.

What about the “5-HT1A receptor modulation (reduction of forskolin-induced cAMP)” value [3] of the same compound?
The value was “no significant receptor modulation”.

For COC(=O)c1cccc(C(=O)Oc2cccc3[nH]cc(CCN(C)C)c23)c1 [C(XLIII)], which “5-HT1A receptor modulation (reduction of forskolin-induced cAMP)” value [3] is on record?
The value was “receptor modulation at higher ligand concentrations”.

With CN(C)CCc1c[nH]c2cccc(OC(=O)c3c(F)c(F)c(F)c(F)c3F)c12 [C(VI)] as the compound, how does the “Head Twitch Response (HTR) incidence” value [1] read?
The value was “Elevated incidences of HTR”.

What about the “Detection of parent compound in plasma” value ([2]; mouse, any animals at any dose (i.v. and oral)) of the same compound?
Its value is “not detectable in any animals at any dose”.

And the “Plasma concentration of psilocin” value [2, 4]?
The value was “BLQ”.

What about the “Plasma concentration of psilocin” value [2, 5] of the same compound?
Its value is “BLQ”.

What about the “Plasma concentration of psilocin” value [2, 6] of the same compound?
The value was “BLQ and No Peak (2×)”.

What about the “Plasma concentration of psilocin” value [2, 7] of the same compound?
Its value is “BLQ (2×) and No Peak”.

And the “Plasma concentration of psilocin” value [2, 8]?
The value was “BLQ”.

What about the “5-HT1A receptor modulation (reduction of forskolin-induced cAMP)” value [3] of the same compound?
The value was “no receptor modulation at higher ligand concentrations”.

With CN(C)CCc1c[nH]c2cccc(OC(=O)c3cccc4c3OCCO4)c12 [C(XX)] as the compound, how does the “Head Twitch Response (HTR) incidence” value [1] read?
Its value is “Elevated incidences of HTR”.

What about the “Plasma concentration of psilocin” value ([2]; 1 mg/kg i.v. C(XX), 8 h, individual mice, LLOQ 0.5 ng/mL) of the same compound?
The value was “BLQ”.

And the “Plasma concentration of psilocin” value ([2]; 1 mg/kg oral C(XX), 24 h, individual mice, LLOQ 0.5 ng/mL)?
Its value is “BLQ”.

And the “Plasma concentration of C(XX)” value ([2]; 3 mg/kg oral C(XX), 0.25 h, individual mice)?
The value was 1.72 ng/mL.

What about the “Plasma concentration of C(XX)” value ([2]; 3 mg/kg oral C(XX), 0.5 h, individual mice) of the same compound?
The value was 1.13 ng/mL.

What about the “Plasma concentration of C(XX)” value ([2]; 3 mg/kg oral C(XX), 4 h, individual mice) of the same compound?
The value was “No Peak (2×) and BLQ”.

What about the “Plasma concentration of C(XX)” value ([2]; 3 mg/kg oral C(XX), 6 h, individual mice) of the same compound?
Its value is “No Peak and BLQ (2×)”.

And the “Plasma concentration of C(XX)” value ([2]; 3 mg/kg oral C(XX), 8 h, individual mice)?
Its value is “No Peak and BLQ (2×)”.

What about the “Plasma concentration of C(XX)” value ([2]; 3 mg/kg oral C(XX), 24 h, individual mice) of the same compound?
Its value is “No Peak”.

What about the “Plasma concentration of psilocin” value ([2]; 3 mg/kg oral C(XX), 24 h, individual mice, LLOQ 0.5 ng/mL) of the same compound?
The value was “BLQ”.

What about the “F of C(XX)” value ([2]; 3 mg/kg oral C(XX), individual mice) of the same compound?
Its value is 0.816% and 1.08% and 0.962%.

And the “F of C(XX)” value ([2]; 3 mg/kg oral C(XX), mean)?
Its value is 0.953 ± 0.132%.

And the “Plasma concentration of C(XX)” value ([2]; 10 mg/kg oral C(XX), 0.25 h, individual mice)?
The value was 10.3 ng/mL.

What about the “Plasma concentration of C(XX)” value ([2]; 10 mg/kg oral C(XX), 2 h, individual mice) of the same compound?
Its value is 1.08 ng/mL.

What about the “Plasma concentration of C(XX)” value ([2]; 10 mg/kg oral C(XX), 4 h, individual mice) of the same compound?
Its value is “BLQ”.

What about the “Plasma concentration of C(XX)” value ([2]; 10 mg/kg oral C(XX), 6 h, individual mice) of the same compound?
Its value is “BLQ”.

What about the “Plasma concentration of C(XX)” value ([2]; 10 mg/kg oral C(XX), 8 h, individual mice) of the same compound?
The value was “BLQ”.

What about the “Plasma concentration of C(XX)” value ([2]; 10 mg/kg oral C(XX), 24 h, individual mice) of the same compound?
The value was “No Peak”.

What about the “Plasma concentration of psilocin” value ([2]; 10 mg/kg oral C(XX), 24 h, individual mice, LLOQ 0.5 ng/mL) of the same compound?
The value was “BLQ”.

And the Plasma concentration ([2]; 1 mg/kg i.v., 2 h, each animal, 1 mg/kg)?
The Plasma concentration was 1.14 ng/mL.

And the Plasma concentration ([2]; 1 mg/kg i.v., 6 h, each animal)?
The Plasma concentration was “BLQ”.

What about the Plasma concentration ([2]; 1 mg/kg i.v., 8 h, each animal, 1 mg/kg) of the same compound?
The Plasma concentration was “BLQ and No (2×)”.

And the Plasma concentration ([2]; 1 mg/kg p.o., 2 h, each animal)?
Its Plasma concentration is “BLQ”.

And the Plasma concentration ([2]; 1 mg/kg p.o., 4 h, each animal)?
The Plasma concentration was “BLQ”.

And the Plasma concentration ([2]; 1 mg/kg p.o., 6 h, each animal, 1 mg/kg)?
The Plasma concentration was “No Peak (2×) and BLQ”.

What about the Plasma concentration ([2]; 1 mg/kg p.o., 8 h, each animal, 1 mg/kg) of the same compound?
Its Plasma concentration is “No Peak (2×) and BLQ”.

What about the Plasma concentration ([2]; 1 mg/kg p.o., 24 h, each animal) of the same compound?
The Plasma concentration was “No Peak”.

And the AUC0-tlast/Dose ([2]; parent compound in plasma, 1 mg/kg i.v., each animal, 1 mg/kg)?
Its AUC0-tlast/Dose is 48.0 kg·ng·h/mL/mg.

And the “AUC0-tlast/Dose of C(XX)” value ([2]; 1 mg/kg i.v. C(XX), mean)?
Its value is 52.8 ± 8.30 kg·ng·h/mL/mg.

What about the “Cmax/Dose of C(XX)” value ([2]; 1 mg/kg p.o. C(XX), mean) of the same compound?
Its value is 0.620 ± 0.0996 kg·ng/mL/mg.

And the “AUC0-inf/Dose of C(XX)” value [2, 9]?
Its value is 0.433 kg·ng·h/mL/mg and 0.572 kg·ng·h/mL/mg and 0.510 kg·ng·h/mL/mg.

And the “AUC0-tlast/Dose of C(XX)” value [2, 9]?
Its value is 0.406 kg·ng·h/mL/mg and 0.494 kg·ng·h/mL/mg and 0.474 kg·ng·h/mL/mg.

What about the “Cmax/Dose of C(XX)” value [2, 9] of the same compound?
The value was 0.497 kg·ng/mL/mg and 0.573 kg·ng/mL/mg and 0.643 kg·ng/mL/mg.

What about the “AUC0-inf/Dose of C(XX)” value ([2]; 3 mg/kg oral C(XX), mean) of the same compound?
The value was 0.505 ± 0.0700 kg·ng·h/mL/mg.

What about the “AUC0-tlast/Dose of C(XX)” value ([2]; 3 mg/kg oral C(XX), mean) of the same compound?
Its value is 0.458 ± 0.0457 kg·ng·h/mL/mg.

What about the “Cmax/Dose of C(XX)” value ([2]; 3 mg/kg oral C(XX), mean) of the same compound?
The value was 0.571 ± 0.0734 kg·ng/mL/mg.

And the “AUC0-tlast/Dose of C(XX)” value [2, 10]?
Its value is 0.565 kg·ng·h/mL/mg and 0.499 kg·ng·h/mL/mg and 0.916 kg·ng·h/mL/mg.

What about the “Cmax/Dose of C(XX)” value [2, 10] of the same compound?
The value was 0.299 kg·ng/mL/mg and 0.912 kg·ng/mL/mg and 1.03 kg·ng/mL/mg.

And the “AUC0-tlast/Dose of C(XX)” value ([2]; 10 mg/kg oral C(XX), mean)?
The value was 0.660 ± 0.224 kg·ng·h/mL/mg.

What about the “Cmax/Dose of C(XX)” value ([2]; 10 mg/kg oral C(XX), mean) of the same compound?
Its value is 0.747 ± 0.392 kg·ng/mL/mg.

What about the “5-HT1A receptor modulation (reduction of forskolin-induced cAMP)” value [3] of the same compound?
Its value is “significant receptor modulation”.

Source: patent publication US20250197351A1, “C4-CARBOXYLIC ACID-S[…] DERIVATIVES AND METHODS OF USING” (priority 2022, published 2025)
